Results: ChEMBL document CHEMBL5543174, “A Nonbactericidal Anionic Antimicrobial Peptide Provides Prophylactic and Therapeutic Efficacies against Bacterial Infections in Mice by Immunomodulatory-Antithrombotic Duality” (J Med Chem, 2024)
Activity calls are given as the source filed them. The rule behind the calls is not given here.

Assays:
Salmonella paratyphi = assay: Antimicrobial activity against Salmonella paratyphi ATCC 9150 assessed as inhibition of microbial growth at <= 200 ug/ml incubated for 18 hrs by micro-broth dilution method; assay type: functional, organism-based; settings: Salmonella enterica subsp. enterica serovar Paratyphi A, dose <= 200.0 µg/ml
Escherichia coli [1] = assay: Antibacterial activity against Carbapenem-resistant Escherichia coli infected in C57BL/6 mouse assessed as reduction in TNF-alpha level in serum at 10 mg/kg,ip administrated 5 hrs after bacterial infection measured after 24 hrs by ELISA; assay type: functional, organism-based; settings: time 19.0 hrs
Staphylococcus aureus [2] = assay: Antibacterial activity against Methicillin-resistant Staphylococcus aureus infected in C57BL/6 mouse assessed as reduction in IL-6 level in serum at 10 mg/kg,ip administrated 5 hrs after bacterial infection measured after 24 hrs by ELISA; assay type: functional, organism-based; settings: time 19.0 hrs
Peritoneal macrophage [3] = assay: Induction of chemotaxis in mouse Peritoneal macrophage assessed as upregulation of CXCL1 gene expression incubated for 6 hrs by qPCR analysis; assay type: functional, cell-based
Escherichia coli [4] = assay: Antibacterial activity against Carbapenem-resistant Escherichia coli infected in C57BL/6 mouse assessed as reduction in TNF-alpha level in peritoneal fluid at 10 mg/kg,ip administrated 5 hrs after bacterial infection measured after 24 hrs by ELISA; assay type: functional, organism-based; settings: time 19.0 hrs
Staphylococcus aureus [5] = assay: (§1) Antibacterial activity against Methicillin-resistant Staphylococcus aureus infected in C57BL/6 mouse with cyclophosphamide-induced neutrophil depletion model assessed as reduction of bacterial burden in peritoneal cavity at 10 mg/kg,ip administrated 5 hrs after bacterial infection measured after 24 hrs; assay type: functional, organism-based; settings: time 19.0 hrs
Staphylococcus aureus [6] = assay: Antibacterial activity against Methicillin-resistant Staphylococcus aureus infected in C57BL/6 mouse assessed as reduction in IL-1beta level in peritoneal fluid at 10 mg/kg,ip administrated 5 hrs after bacterial infection measured after 24 hrs by ELISA; assay type: functional, organism-based; settings: time 19.0 hrs
Escherichia coli [7] = assay: Antibacterial activity against Escherichia coli ATCC 25922 infected in C57BL/6 mouse assessed as reduction in IL-1beta level in peritoneal fluid at 10 mg/kg,ip administrated 5 hrs after bacterial infection measured after 24 hrs by ELISA; assay type: functional, organism-based; settings: time 19.0 hrs
Escherichia coli [8] = assay: Antimicrobial activity against Carbapenem-resistant Escherichia coli assessed as inhibition of microbial growth at <= 200 ug/ml incubated for 18 hrs by micro-broth dilution method; assay type: functional, organism-based; settings: dose <= 200.0 µg/ml
Escherichia coli [9] = assay: Antibacterial activity against Carbapenem-resistant Escherichia coli infected in C57BL/6 mouse assessed as reduction in inflammatory injury in lung at 10 mg/kg,ip pre-administrated 5 hrs before bacterial infection measured after 24 hrs by hematoxylin and eosin staining based analysis; assay type: functional, organism-based; settings: time 29.0 hrs
Mus musculus [10] = assay: Immunomodulatory activity in cyclophosphamide immunosuppressed C57BL/6 mouse with neutrophil depletion model assessed as increase in number of neutrophil in peritoneal lavage at 10 mg/kg,ip administration measured after 12 hrs by flow cytometry; assay type: functional, organism-based
Mus musculus [11] = assay: Anticoagulation activity in mouse infected with Methicillin-resistant Staphylococcus aureus assessed as increase in plasma TFPI expression at 10 mg/kg,ip administrated 5 hrs after bacterial infection measured after 24 hrs by ELISA; assay type: functional, organism-based; settings: time 19.0 hrs
Candida albicans = assay: Antimicrobial activity against Candida albicans ATCC 2002 assessed as reduction in microbial colony forming unit at 200 ug/ml incubated for 1 to 4 hrs by time-kill kinetics based analysis; assay type: functional, organism-based; settings: dose 200.0 µg/ml, time 1-4 hrs
Mus musculus [12] = assay: Induction of chemotaxis in C57BL/6 mouse assessed as upregulation of CXCL2 expression in peritoneal lavage at 10 mg/kg,ip administration measured at 5 to 24 hrs by ELISA; assay type: functional, organism-based; settings: time 5-24 hrs
Escherichia coli [13] = assay: Antibacterial activity against Carbapenem-resistant Escherichia coli infected in C57BL/6 mouse assessed as reduction in IL-1beta level in peritoneal fluid at 10 mg/kg,ip administrated 5 hrs after bacterial infection measured after 24 hrs by ELISA; assay type: functional, organism-based; settings: time 19.0 hrs
Alcaligenes faecalis = assay: Antimicrobial activity against Alcaligenes faecalis ATCC 8750 assessed as inhibition of microbial growth at <= 200 ug/ml incubated for 18 hrs by micro-broth dilution method; assay type: functional, organism-based; settings: dose <= 200.0 µg/ml
Klebsiella pneumoniae = assay: Antimicrobial activity against Klebsiella pneumoniae ATCC 27736 assessed as inhibition of microbial growth at <= 200 ug/ml incubated for 18 hrs by micro-broth dilution method; assay type: functional, organism-based; settings: dose <= 200.0 µg/ml
Mus musculus [14] = assay: Immunomodulatory activity in cyclophosphamide immunosuppressed C57BL/6 mouse with neutrophil depletion model assessed as change in B-lymphocytes in peritoneal lavage at 10 mg/kg,ip administration measured after 5 to 24 hrs by flow cytometry; assay type: functional, organism-based; settings: time 5-24 hrs
Staphylococcus aureus [15] = assay: Antibacterial activity against Staphylococcus aureus ATCC 25923 infected in C57BL/6 mouse assessed as reduction in TNF-alpha level in peritoneal fluid at 10 mg/kg,ip pre-administrated 5 hrs before bacterial infection measured after 24 hrs by ELISA; assay type: functional, organism-based; settings: time 29.0 hrs
Staphylococcus aureus [16] = assay: as §1, with “clodronate liposome-induced monocyte” for “cyclophosphamide-induced neutrophil”; assay type: functional, organism-based; settings: time 19.0 hrs
Neutrophil = assay: Induction of degranulation in mouse bone marrow derived neutrophil assessed as increase in CRAMP release at 25 to 100 ug/ml incubated for 6 hrs by ELISA; assay type: functional, cell-based; settings: dose 25-100 µg/ml
Peritoneal macrophage [17] = assay: Induction of chemotaxis in mouse Peritoneal macrophage assessed as upregulation of TNF-alpha expression at 25 to 100 ug/ml incubated for 6 hrs by ELISA; assay type: functional, cell-based; settings: dose 25-100 µg/ml
Peritoneal macrophage [18] = assay: Induction of chemotaxis in mouse Peritoneal macrophage assessed as upregulation of CXCL2 production at 100 ug/ml preincubated with MTS510 followed by compound addition by ELISA; assay type: functional, cell-based; settings: dose 100.0 µg/ml
Peritoneal macrophage [19] = assay: Induction of nitric oxide production in mouse Peritoneal macrophage incubated for 6 hrs by Griess reagent based ELISA; assay type: functional, cell-based
Staphylococcus aureus [20] = assay: Antibacterial activity against Methicillin-resistant Staphylococcus aureus infected in C57BL/6 mouse assessed as reduction in IL-1beta level in serum at 10 mg/kg,ip pre-administrated 5 hrs before bacterial infection measured after 24 hrs by ELISA; assay type: functional, organism-based; settings: time 29.0 hrs
Escherichia coli [21] = assay: Antimicrobial activity against Escherichia coli ATCC 25922 assessed as reduction in metabolic activity at < 200 ug/ml incubated for 1 to 4 hrs by CCK-8 assay; assay type: functional, organism-based; settings: dose < 200.0 µg/ml, time 1-4 hrs
[22] = tested on: Peritoneal macrophage cell; assay: Induction of chemotaxis in mouse Peritoneal macrophage assessed as upregulation of CXCL1 production at 100 ug/ml preincubated with KN-62 followed by compound addition by ELISA; assay type: functional, cell-based; settings: dose 100.0 µg/ml
Staphylococcus aureus [23] = assay: Antibacterial activity against Staphylococcus aureus ATCC 25923 infected in C57BL/6 mouse assessed as reduction in IL-1beta level in serum at 10 mg/kg,ip pre-administrated 5 hrs before bacterial infection measured after 24 hrs by ELISA; assay type: functional, organism-based; settings: time 29.0 hrs
Mus musculus [24] = assay: Anticoagulation activity in mouse infected with Methicillin-resistant Staphylococcus aureus assessed as increase in plasma APC expression at 10 mg/kg,ip pre-administrated 5 hrs before bacterial infection measured after 24 hrs by ELISA; assay type: functional, organism-based; settings: time 29.0 hrs
Mus musculus [25] = assay: Anticoagulation activity in mouse infected with Carbapenem-resistant Escherichia coli assessed as increase in plasma TFPI expression at 10 mg/kg,ip pre-administrated 5 hrs before bacterial infection measured after 24 hrs by ELISA; assay type: functional, organism-based; settings: time 29.0 hrs
Peritoneal macrophage [26] = assay: Immunoregulatory activity in mouse Peritoneal macrophage assessed as change in total p65 expression at 25 to 100 ug/ml incubated for 1 hr by Western blotting analysis; assay type: functional, cell-based; settings: dose 25-100 µg/ml

## CC[C@H](C)[C@H](NC(=O)[C@@H]1CSSC[C@H](NC(=O)[C@H](CCC(=O)O)NC(=O)[C@@H](NC(=O)[C@H](CCCCN)NC(=O)[C@H](Cc2c[nH]cn2)NC(=O)[C@@H](NC(=O)[C@H](CCCCN)NC(=O)[C@H](CCC(=O)O)NC(=O)[C@H](C)NC(=O)[C@H](CCC(=O)O)NC(=O)[C@H](CCC(=O)O)NC(=O)[C@H](CCC(=O)O)NC(=O)[C@H](C)N)[C@@H](C)O)[C@@H](C)O)C(=O)N[C@@H](CC(C)C)C(=O)N[C@@H](CCC(=O)O)C(=O)N1)C(=O)N[C@@H](Cc1ccccc1)C(=O)N[C@H](C(=O)N[C@@H](CC(C)C)C(=O)N[C@@H](CC(C)C)C(=O)N1CCC[C@H]1C(=O)N1CCC[C@@H]1C(=O)N[C@H](C)C(=O)O)[C@@H](C)O
Salmonella paratyphi
  Activity: inactive
Escherichia coli [1]
  Activity: Active
Staphylococcus aureus [2]
  Activity: Active
Peritoneal macrophage [3]
  Activity: Dose-Dependent Effect
Escherichia coli [4]
  Activity: Active
Staphylococcus aureus [5]
  Activity: inactive
Staphylococcus aureus [6]
  Activity: Active
Escherichia coli [7]
  Activity: Active
Escherichia coli [8]
  Activity: inactive
Escherichia coli [9]
  Activity: Active
Mus musculus [10]
  Activity: Active
Mus musculus [11]
  Activity: Active
Candida albicans
  Activity: inactive
Mus musculus [12]
  Activity: inactive
Escherichia coli [13]
  Activity: Active
Alcaligenes faecalis
  Activity: inactive
Klebsiella pneumoniae
  Activity: inactive
Mus musculus [14]
  Activity: inactive
Staphylococcus aureus [15]
  Activity: Active
Staphylococcus aureus [16]
  Activity: inactive
Neutrophil
  Activity: Active
Peritoneal macrophage [17]
  Activity: inactive
Peritoneal macrophage [18]
  Activity: Active
Peritoneal macrophage [19]
  Activity: Dose-Dependent Effect
Staphylococcus aureus [20]
  Activity: Active
Escherichia coli [21]
  Activity: inactive
[22]
  Activity: Active
Staphylococcus aureus [23]
  Activity: Active
Mus musculus [24]
  Activity: Active
Mus musculus [25]
  Activity: Active
Peritoneal macrophage [26]
  Activity: inactive
